Source: US8476256B2, “Diazonamide analogs” (Joyant Pharmaceuticals, Inc., priority 2008, dated 2013)

Legend:
[1] = tested on: A2058 (human melanoma) cell line; test: Cell viability assay (CELL-TITER-GLO), A2058; format: cell-based; details: Table 8 cell profiling, A2058, Skin
[2] = tested on: DLD-1 tumor cell line (Colon); test: Cell profiling, DLD-1; format: cell-based; details: Homo sapiens; DLD-1, Colon
Method: (§1) Cell viability assays were run using standard protocols known to those of skill in art. Cells were plated in 96 well plates at the density of 3,000-10,000 cells per well. Twenty four hours later, cells were treated with increasing concentration of test compounds (1 nM to 1 μM). After another 48 hour, cell survival was measured using CELL-TITER-GLO® reagent (Promega) following the protocol provided by the manufacture. The IC50 value was determined as the concentration of test compound that kills 50% of the cell population.

[3] = tested on: A2058 (human melanoma) cell line; test: Cell viability assay (CELL-TITER-GLO), A2058; format: cell-based; details: A2058 cells, 48 hour treatment, 1 nM to 1 μM
Method: as §1
(§2) Cell viability data generated according to the protocol described herein was generated for representative compounds in the A2058 (human melanoma) and U937 (human leukemic monocyte lymphoma) cell lines. The compound of Example 16 (“Compound J”) was used as a reference compound.

[4] = tested on: BxPC3 tumor cell line (Pancreas); test: Cell profiling, BxPC3; format: cell-based; details: Homo sapiens, BXPC-3
Method: as §1

[5] = tested on: Lovo tumor cell line (Colon); test: Cell profiling, Lovo; format: cell-based; details: Homo sapiens
Method: as §1

[6] = tested on: A375 tumor cell line (Skin); test: Cell profiling, A375; format: cell-based; details: Homo sapiens, A-375
Method: as §1

[7] = tested on: SW1990 tumor cell line (Pancreas); test: Cell profiling, SW1990; format: cell-based; details: Homo sapiens
Method: as §1

[8] = tested on: HCC1437 tumor cell line (Lung); test: Cell profiling, HCC1437; format: cell-based
Method: as §1

[9] = tested on: HCC44 tumor cell line (Lung); test: Cell profiling, HCC44; format: cell-based; details: Homo sapiens
Method: as §1

[10] = tested on: SKMES-1 tumor cell line (Lung); test: Cell profiling, SKMES-1; format: cell-based; details: Homo sapiens, SK-MES-1; SKMES-1, Lung
Method: as §1

[11] = tested on: U937 (human leukemic monocyte lymphoma) cell line; test: Cell viability assay (CELL-TITER-GLO), U937; format: cell-based; details: U-937, U937 cells, 48 hour treatment, 1 nM to 1 μM
Method: as §1, §2

[12] = tested on: MDA-MB435 tumor cell line (Breast); test: Cell profiling, MDA-MB435; format: cell-based; details: Homo sapiens, MDA-MB-435
Method: as §1

[13] = tested on: MiaPaca (pancreatic cancer) cells; test: MiaPaca xenograft model, tumor free animals; format: in vivo, Athymic nude mice; details: 20 mg/kg, tail vein injection, 6 injections (days 9, 11, 14, 16, 18, 21), at 35 days post tumor cell injection, 7 mice/group
Method: Animals: Athymic nude mice, female, 6-7 weeks old, 20-25 g. Animals bearing with 180-400 mg tumors were selected for experiment. 7 mice/group.
Administration: Tail vein injection, 200 μL/mouse, to provide the dose indicated.
Dosing schedule: 6 injections were given on the days indicated post-tumor cell injection.
Controls: Vehicle, Compound J at 20 mg/kg.
Test Compound preparation: Compound J and all test compounds were dissolved in 50% Cremophore/EtOH (1:1) at 10 mg/mL as stock solution. Each compound solution was diluted with saline before injection to the concentration indicated.
Xenograft Model: MiaPaca (pancreatic cancer) cells
Dosing schedule: 6 injections were given on days 9, 11, 14, 16, 18 and 21 post-tumor cell injection.
Test Compounds: Example 23, Example 24, and Example 53, at 20 mg/kg.
For animals treated with the compound of Example 24 at 20 mg/kg, 7 of 7 animals were tumor free at 35 days post tumor cell injection.

[14] = tested on: MDA-MB231 tumor cell line (Breast); test: Cell profiling, MDA-MB231; format: cell-based; details: Homo sapiens, MDA-MB-231
Method: as §1

[15] = tested on: SKMEL-5 tumor cell line (Skin); test: Cell profiling, SKMEL-5; format: cell-based; details: Homo sapiens, SK-MEL-5; SKMEL-5, Skin
Method: as §1

[16] = tested on: G361 tumor cell line (Skin); test: Cell profiling, G361; format: cell-based; details: Homo sapiens, G-361
Method: as §1

[17] = tested on: NCI-H226 tumor cell line (Lung); test: Cell profiling, NCI-H226; format: cell-based; details: Homo sapiens
Method: as §1

[18] = tested on: NCI-H460 tumor cell line (Lung); test: Cell profiling, NCI-H460; format: cell-based; details: Homo sapiens
Method: as §1

[19] = tested on: Panc-1 tumor cell line (Pancreas); test: Cell profiling, Panc-1; format: cell-based; details: Homo sapiens; Panc-1, Pancreas
Method: as §1

[20] = tested on: Colo205 tumor cell line (Colon); test: Cell profiling, Colo205; format: cell-based; details: Homo sapiens, COLO 205
Method: as §1

[21] = tested on: MiaPaca-2 tumor cell line (Pancreas); test: Cell profiling, MiaPaca-2; format: cell-based; details: Homo sapiens, MIA PaCa-2; MiaPaca-2, Pancreas
Method: as §1

[22] = tested on: U937 (human leukemic monocyte lymphoma) cell line; test: Cell viability assay (CELL-TITER-GLO), U937; format: cell-based; details: U-937, Table 8 cell profiling, U937, Blood
[23] = tested on: DU145 tumor cell line (Prostate); test: Cell profiling, DU145; format: cell-based; details: Homo sapiens, DU-145
Method: as §1

[24] = tested on: PL45 tumor cell line (Pancreas); test: Cell profiling, PL45; format: cell-based
Method: as §1

[25] = tested on: HT29 tumor cell line (Colon); test: Cell profiling, HT29; format: cell-based; details: Homo sapiens, HT-29
Method: as §1

[26] = tested on: T98G tumor cell line (Glial Cells); test: Cell profiling, T98G; format: cell-based; details: Homo sapiens
Method: as §1

CCC(O)(CC)C(=O)N[C@H]1Cc2ccc3c(c2)C24C5=C(N=C(O5)[C@H](C(C)C)NC1=O)c1ncc(o1)-c1c[nH]c5cccc(c15)-c1cccc2c1NC4O3 (stereo in doubt) [Example 24]
IC50 [1]: 93 nM | IC50 [2]: 515 nM | IC50 [3]: 0.105 µM | IC50 [4]: 213 nM | IC50 [5]: 150 nM | IC50 [6]: 162 nM | IC50 [7]: 360 nM | IC50 [8]: 195 nM | IC50 [9]: 36 nM | IC50 [10]: 470 nM | IC50 [11]: 0.062 µM | IC50 [12]: 29 nM | Tumor-free animals out of 7 [13]: 7 of 7 | Tumor-free animals out of 7 ([13]; listed as Ex. 24): 7/7 (35) | IC50 [14]: 234 nM | IC50 [15]: 70 nM | IC50 [16]: 275 nM | IC50 [17]: 104 nM | IC50 [18]: 242 nM | IC50 [19]: 288 nM | IC50 [20]: 144 nM | IC50 [21]: 111 nM | IC50 [22]: 44 nM | IC50 [23]: 57 nM | IC50 [24]: 113 nM | IC50 [25]: 90 nM | IC50 [26]: 67 nM
